Earlier results as cited in patent publication US20100129448A1, “TOPICAL HYDROGEL COMPOSITION” (Nanotherapeutics, Inc., priority 2008, published 2010).

| aqueous solubility (pH greater than 6) | solubility (neutral pH) | SMILES |
| --- | --- | --- |
| less than 0.8 mg/ml |  | C[C@H]1c2cccc(O)c2C(=O)C2=C(O)[C@]3(O)C(=O)C(C(N)=O)=C(O)[C@@H](N(C)C)[C@@H]3[C@@H](O)[C@@H]21 [Doxycycline Monohydrate] |
|  | less than 10 mg/ml | C[C@H]1c2cccc(O)c2C(=O)C2=C(O)[C@]3(O)C(=O)C(C(N)=O)=C(O)[C@@H](N(C)C)[C@@H]3[C@@H](O)[C@@H]21 [Doxycycline] |
